# pIC50: −log10 of the molar value.
# Tests used:
# Details in all cases: pH 7
# [1] = target: Aldo-keto reductase family 1 member B10 [K125R,V301L] (Homo sapiens, UniProt O60218, K125R/V301L); assay: IC50-Activity Assay (AR)
# Procedure: (§1) The IC50-activity assays were carried out on the basis of the quantification of the NADPH consumption that takes place when the enzyme catalyzes the conversion of the aldehyde substrate into the alcohol product. […] The final reaction volume was 600 μL per reaction. All compounds were dissolved in dimethyl sulfoxide (DMSO), and the corresponding solution was added to the cell to be assayed in a final concentration of 2% (v/v) DMSO and incubated for 5 min at 25 °C prior to the addition of the substrate. The reaction was initiated by the addition of 1 mM glyceraldehyde, and the decrease in optical density at 340 nm was monitored for at least 3 min at 25 °C in a UV−vis spectrophotometer (Cary 400 Bio (Varian)).
# [2] = target: T1, Aldo-keto reductase family 1 member B10 (Homo sapiens, UniProt O60218); assay: IC50-Activity Assay (AR)
# Procedure: as §1
# [3] = target: Aldo-keto reductase family 1 member B1 (Homo sapiens, UniProt P15121); assay: IC50-Activity Assay (AR)
# Procedure: as §1
# [4] = target: T1, Aldo-keto reductase family 1 member B10; assay: IC50-Activity Assay (AKR1B10)
# Procedure: as §1, with “60” for “1”, “glyceraldehyde and 0.2 mM pyridine-3-aldehyde,” for “glyceraldehyde,”, “opticaldensity” for “optical density”
# Chain of Aldo-keto reductase family 1 member B10 [K125R,V301L] (O60218 whole entry K125R/V301L): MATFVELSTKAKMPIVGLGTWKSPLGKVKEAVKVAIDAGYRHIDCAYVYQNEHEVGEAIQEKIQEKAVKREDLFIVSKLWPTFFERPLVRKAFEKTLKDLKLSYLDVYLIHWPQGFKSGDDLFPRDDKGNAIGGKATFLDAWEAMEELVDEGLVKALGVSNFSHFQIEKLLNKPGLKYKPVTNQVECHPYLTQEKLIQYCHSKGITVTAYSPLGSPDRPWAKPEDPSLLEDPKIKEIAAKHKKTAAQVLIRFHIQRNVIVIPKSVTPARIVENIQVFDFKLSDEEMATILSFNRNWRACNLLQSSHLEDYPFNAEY
# T1 sequence (O60218 whole entry): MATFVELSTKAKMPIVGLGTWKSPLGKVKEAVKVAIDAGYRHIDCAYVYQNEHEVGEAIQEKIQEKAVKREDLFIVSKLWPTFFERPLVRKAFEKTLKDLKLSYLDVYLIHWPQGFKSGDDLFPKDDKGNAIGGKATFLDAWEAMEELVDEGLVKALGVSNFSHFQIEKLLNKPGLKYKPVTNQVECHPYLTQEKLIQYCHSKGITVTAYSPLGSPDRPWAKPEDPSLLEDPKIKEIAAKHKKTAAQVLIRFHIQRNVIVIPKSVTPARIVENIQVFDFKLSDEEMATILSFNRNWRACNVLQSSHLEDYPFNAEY
SMILES,pIC50 [1],pIC50 [2],pIC50 [3],pIC50 [4]
"COc1c(Br)c(Br)c(Br)c(Br)c1Cn1c(=O)ccn(CC(=O)O)c1=O [2-(2,4-dioxo-3-(2,3,4,5-tetrabromo-6-methoxybenzyl)-3,4-dihydropyrimidin-1(2H)-yl)acetic acid]",6.35,–,–,–
"O=C(O)COc1cc(Cl)ccc1C(=O)NCc1c(Br)cc(Br)cc1Br [2-(5-chloro-2-((2,4,6-tribromobenzyl)carbamoyl)phenoxy)acetic acid]",6.00,6.00,4.67,6.37
O=C(O)COc1cc(Cl)ccc1C(=O)NCc1c(Br)c(Br)c(Br)c(Br)c1Br [2-(5-chloro-2-(((perbromophenyl)methyl)carbamoyl)phenoxy)acetic acid],7.10,7.10,4.66,7.52
O=C(O)COc1cc(Cl)ccc1C(=O)NCc1ccc(Br)cc1F [IDD388],5.36,5.36,–,5.57
O=C(O)COc1cc(F)ccc1C(=S)NCc1ccc(Br)cc1F [IDD594],–,–,8.52,–
O=C(O)COc1cc(Cl)ccc1C(=O)NCc1ccc(Br)cc1 [MK181],5.35,5.35,–,5.43
O=C(O)COc1cc(Cl)ccc1C(=O)NCc1c(F)c(F)c(Br)c(F)c1F [MK319],5.15,5.15,–,5.47
COc1ccc2c(C(=S)N(C)CC(=O)O)cccc2c1C(F)(F)F [N-{[6-methoxy-5-(trifluoromethyl)naphthalen-1-yl]carbonothioyl}-N-methylglycine],–,–,–,8.92
CC1=C(CC(=O)O)c2cc(F)ccc2/C1=C\c1ccc([S@@+](C)[O-])cc1 [cis-5-Fluoro-2-methyl-1-((p-methylsulfinyl)benzylidene)indene-3-acetic acid],5.57,–,–,–
